Where two headings read alike, the source gives them in different places.
Key:
human Cx26 HCs [1] = target: T1, human Cx26 HCs (Homo sapiens, UniProt P29033); assay: Cx26-dependent growth complementation assay in E. coli LB2003; assay type: cell-based; details: for IC50: read-out: Cx26 IC50
T1 construct: expressed in transfected cells; host or cells: E. coli LB2003 (carrying pREP4), transformed with pQE-Cx26, IPTG-induced
Procedure: These derivatives were prepared by sequential benzylation and methylation followed by reduction of azido groups or hydrogenolysis of the Bn. […] Connexin HC inhibition was conducted using a bacteria-based assay of HC function^39. In this assay, Cx26 HCs are expressed in E. coli LB2003 cells, which lack three major K^+ uptake systems (Kdp, Kup and Trk), and as a result they cannot grow in low-[K^+] media^39-41. However, growth of this E. coli strain in low-[K^+] medium can be rescued by expression of K^+-permeable channels such as connexin HCs^39, 42-43. Under the conditions of the assay (LB2003 cells expressing HCs and grown in low-K^+ medium), inhibition of the HCs reduces or abolishes growth^39, 42-43. This is a simple assay where bacterial growth in multi-well plates can be followed by measuring the absorbance at 600 nm (OD600)^29.
LB2003 cells generously provided by Dr. E. P. Bakker (Osnabruk University, Osnabruk, Germany) were transformed with the plasmid pQE-Cx26 (human Cx26 into pQE60) and pREP4. […] LB2003 cells cannot grow in low-[K^+] media because of insufficient K^+ uptake for growth due to the knockout of three key K^+ transporters (Atrk, Akup, Akdp strain)^2-4. Details and validation of the growth complementation assay have been published recently^2. In brief, competent LB2003 containing the pREP4 plasmid were transformed with pQE-Cx26. These cells were grown overnight in Luria-Bertani medium (BD, Franklin Lakes, NJ, USA) supplemented with 100 mM KCl (to allow growth) and 0.4 mg/mL ampicillin, and then washed four times with NLM (see below), to remove residual K^+ from the Luria-Bertani medium. The washed cells were resuspended in complementation growth medium to an OD600 of 0.2. NLM contained 46 mM Na2HPO4, 23 mM NaH2PO4, 8 mM (NH4)2SO4, 0.4 mM MgSO4, 0.012 mM FeSO4, 1 mM sodium citrate, 44 mM glucose and 0.006 mM thiamine hydrochloride, pH 7.0. KLM had the same composition that NLM except for the equimolar replacement of Na^+ with K^+. For growth complementation we used NLM+4 mM KCl, and Cx26 expression was induced with 0.5 mM IPTG at the time of dilution to OD600=0.2. For the assay, the cells were seeded in 96-well plates and were incubated at 30° C., with shaking at 500 rpm. OD600 was measured after 18-h incubation in a plate reader. The initial OD600=0.2 was subtracted for growth calculations. Data are presented as means±SEM. Statistically significant differences were calculated by the Student t-test for unpaired data. Data were obtained from at least 3 independent experiments, with 3 repeats per experiment.

Cx43 HCs [2] = target: T2, Cx43 HCs (Homo sapiens, UniProt P17302); assay: Cx43-dependent growth complementation assay in E. coli LB2003; assay type: cell-based; details: for Cx43/Cx26 Selectivity: IC50 Cx26/IC50 Cx43; for inhibition at 15 µM / Cx43 inhibition (%): 15 μM; for IC50: read-out: Cx43 IC50
T2 construct: expressed in transfected cells

Cx43 HCs [3] = target: T2, Cx43 HCs; details: cited from earlier work
human Cx26 HCs [4] = target: T1, human Cx26 HCs; details: commercial aminoglycosides, the 16th table, adapted from ref. 1; cited from earlier work
[5] = Table 3, read-out: Cx243% inhibition
[6] = commercial aminoglycosides, the 16th table, adapted from ref. 1, read-out: Cx43 IC50
[7] = K members, the 21st table, read-out: Cx43 % inhibition
[8] = Table 6, read-out: Cx43 (% inhibition)
[9] = the 15th table, second Cx43 column, sub-head and unit not given
[10] = the 15th table, sub-head and unit inferred
[11] = the 15th table, Cx26, sub-head and unit not given
[12] = the 15th table, Cx26, unit not given (cf. the 22nd table)
[13] = KI members, the 23rd table, read-out: Cx43 % inhibition

T2 sequence (P17302 whole entry): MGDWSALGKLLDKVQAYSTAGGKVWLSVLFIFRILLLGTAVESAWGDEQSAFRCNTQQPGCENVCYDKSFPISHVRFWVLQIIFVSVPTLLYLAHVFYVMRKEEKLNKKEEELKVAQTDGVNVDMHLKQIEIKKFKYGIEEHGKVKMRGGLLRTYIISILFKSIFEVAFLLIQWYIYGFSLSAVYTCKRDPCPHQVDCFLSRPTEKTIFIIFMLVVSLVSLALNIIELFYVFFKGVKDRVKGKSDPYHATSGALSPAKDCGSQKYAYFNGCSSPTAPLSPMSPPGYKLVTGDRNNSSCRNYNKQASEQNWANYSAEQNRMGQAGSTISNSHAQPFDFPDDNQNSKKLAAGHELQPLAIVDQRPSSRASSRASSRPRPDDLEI

Row | inhibition at 15 µM (human Cx26 HCs [1]; Table 3) [%] | inhibition at 50 µM (human Cx26 HCs [1]; Table 3) [%] | inhibition at 15 µM (Cx43 HCs [2]; [5]) [%] | inhibition at 50 µM (Cx43 HCs [2]; [5]) [%] | inhibition at 15 µM (human Cx26 HCs [1]; Table 6) [%] | inhibition at 50 µM (human Cx26 HCs [1]; Table 6) [%] | inhibition at 15 µM (Cx43 HCs [2]; [8]) [%] | inhibition at 50 µM (Cx43 HCs [2]; [8]) [%] | IC50 (Cx43 HCs [2]; Table 7) [µM] | Cx43 Imax (Cx43 HCs [2]; [9]) | IC50 (Cx43 HCs [2]; [10]) [µM] | inhibition at 15 µM (Cx43 HCs [2]; [13]) [%] | inhibition at 50 µM (Cx43 HCs [2]; [13]) [%] | Compound | IC50 (human Cx26 HCs [4]) [µM] | IC50 (Cx43 HCs [3]; [6]) [µM] | further results
1 | 49.7 ± 1.6 | 77.4 ± 1.8 | 15.6 ± 1.4 | 40.4 ± 1 |  |  |  |  |  |  |  |  |  | NCC1O[C@H](OC2C(N)CC(N)C(OC3O[C@H](CO)C(O)C(N)[C@H]3O)C2O)C(O)[C@@H](O)[C@@H]1O (stereo in doubt) [Kanamycin A, reference compound] |  |  | IC50 (Cx43 HCs [3]; approximate, text b120, read-out: IC50 for inhibition of Cx43 HCs): ~50 µM
2 |  |  |  |  |  |  |  |  |  |  |  |  |  | CN[C@@H]1[C@@H](O)[C@@H](O[C@@H]2[C@@H](O)[C@H](O[C@H]3O[C@H]([C@@H](C)O)[C@@H](O)[C@H](O)[C@H]3N)[C@@H](N)C[C@H]2N)OC[C@]1(C)O [Compound G418, G418] | 0.44 ± 0.06 | 3 ± 0.8 | Cx43/Cx26 Selectivity (Cx43 HCs [2]; the 16th table): 0.20
3 | 19.3 ± 2.2 | 28.2 ± 4.5 |  |  | 19.3 ± 2.2 | 28.2 ± 4.5 | > 50 | 76.8 ± 5.8 | 6.2 ± 1.4 | 91.1 ± 11.5 | 7.1 ± 1.4 |  |  | Cc1ccc(OC[C@H]2OC(OC3C(N)CC(N)C(O[C@H]4OC(CN)[C@@H](O)C(O)C4O)[C@@H]3O)[C@H](O)C(N)C2O)cc1 (some centres unmarked) [Compound K82] |  |  | IC50 (human Cx26 HCs [1]; Table 7): 49.4 ± 9.3 µM; inhibition at 15 µM (Cx43 HCs [2]; [7]): 58.4 ± 10.6%; Cx43 inhibition (%) (Cx43 HCs [2]; Table 6, listed as 8b): 63.8 ± 6.8%; inhibition at 50 µM (Cx43 HCs [2]; [7]): 71 ± 14.1%; Cx43/Cx26 Selectivity (Cx43 HCs [2]; Table 7, listed as 8b): 7.97; Cx43 Imax (Cx43 HCs [2]; the 22nd table): 91.1 ± 11.5%; IC50 (Cx43 HCs [2]; the 22nd table): 7.1 ± 1.4 µM; Cx43 Imax (Cx43 HCs [2]; the 24th table): 91.1 ± 11.5%; IC50 (Cx43 HCs [2]; the 24th table): 7.1 ± 1.4 µM
4 | 44.4 ± 7 | 69.5 ± 4.5 |  |  | 44.4 ± 7 | 69.5 ± 4.5 | > 50 | 68.3 ± 4.6 | 8.9 ± 1.6 | 80.6 ± 6.0 | 8.9 ± 1.6 |  |  | NCC1O[C@H](OC2C(N)CC(N)C(OC3O[C@H](COc4ccc(Cl)cc4)C(O)C(N)[C@H]3O)[C@H]2O)C(O)C(O)[C@@H]1O (some centres unmarked) [Compound K84] |  |  | Cx26 Imax (human Cx26 HCs [1]; [11]): 95.9 ± 10.9; IC50 (human Cx26 HCs [1]; [12]): 17.2 ± 3.2 µM; Cx26 Imax (human Cx26 HCs [1]; the 22nd table): 95.9 ± 10.9%; Cx26 Imax (human Cx26 HCs [1]; the 24th table): 95.9 ± 10.9%; inhibition at 15 µM (Cx43 HCs [2]; [7]): 45.8 ± 6.4%; Cx43 inhibition (%) (Cx43 HCs [2]; Table 6, listed as 8d): 50.3 ± 1.0%; inhibition at 50 µM (Cx43 HCs [2]; [7]): 76.7 ± 7.7%; Cx43/Cx26 Selectivity (Cx43 HCs [2]; Table 7): 1.93; Cx43 Imax (Cx43 HCs [2]; the 22nd table): 80.6 ± 6.0%; IC50 (Cx43 HCs [2]; the 22nd table): 8.9 ± 1.6 µM; Cx43 Imax (Cx43 HCs [2]; the 24th table): 80.6 ± 6.0%; IC50 (Cx43 HCs [2]; the 24th table): 8.9 ± 1.6 µM
5 | 14 ± 2.1 | 25.2 ± 2.3 | 17 ± 5.2 | 37.2 ± 7.6 | 14 ± 2.1 | 25.2 ± 2.3 | 17 ± 5.2 | 37.2 ± 7.6 |  |  |  | 17 ± 5.2 | 37.2 ± 7.6 | CCCCCCCC(=O)NCC1O[C@H](OC2C(N)CC(N)C(OC3O[C@H](CO)C(O)C(N)[C@H]3O)[C@H]2O)C(O)C(O)[C@@H]1O (some centres unmarked) [KI02] |  |  | 
6 | 16.1 ± 3.2 | 33.6 ± 3.8 | 44.4 ± 5.3 | 53.5 ± 1.9 | 16.1 ± 3.2 | 33.6 ± 3.8 | 44.4 ± 5.3 | 53.5 ± 1.9 |  |  |  | 44.4 ± 5.3 | 53.5 ± 1.9 | CCCCCCCCCC(=O)NCC1O[C@H](OC2C(N)CC(N)C(OC3O[C@H](CO)C(O)C(N)[C@H]3O)[C@H]2O)C(O)C(O)[C@@H]1O (some centres unmarked) [KI03] |  |  | 
7 | 16.4 ± 2.3 | 56.2 ± 6.8 |  |  | 16.4 ± 2.3 | 56.2 ± 6.8 | > 50 | 70.9 ± 2.3 | 9.7 ± 1.8 | 82.2 ± 5.9 | 9.7 ± 1.8 | 43.9 ± 4.3 | 58.2 ± 3.9 | CCCCCCCCCCCC(=O)NCC1O[C@H](OC2C(N)CC(N)C(OC3O[C@H](CO)C(O)C(N)[C@H]3O)[C@H]2O)C(O)C(O)[C@@H]1O (some centres unmarked) [KI04] |  |  | Cx26 Imax (human Cx26 HCs [1]; [11]): 118.0 ± 7.6; IC50 (human Cx26 HCs [1]; [12]): 66.7 ± 6.9 µM; Cx43 inhibition (%) (Cx43 HCs [2]; Table 6, listed as 4i): 53.6 ± 4.6%; Cx43/Cx26 Selectivity (Cx43 HCs [2]; Table 7, listed as 4i): 6.88
8 | 8.8 ± 2 | 22.8 ± 2.2 | 25.5 ± 7.1 | 51 ± 2.5 | 8 ± 2 | 22.8 ± 2.2 | 25.5 ± 7.1 | 51 ± 2.5 |  |  |  | 25.5 ± 7.1 | 51 ± 2.5 | NC1CC(N)C(O[C@H]2OC(CNC(=O)c3cc(-c4ccccc4)nc4ccccc34)[C@@H](O)C(O)C2O)[C@H](O)C1OC1O[C@H](CO)C(O)C(N)[C@H]1O (some centres unmarked) [KI08] |  |  | 
9 | 36.9 ± 3.9 | 79.2 ± 7.5 |  |  | 36.9 ± 3.9 | 79.2 ± 7.5 | > 50 | 69.6 ± 7.5 | 8.6 ± 1 | 80.2 ± 7.0 | 8.6 ± 3 | 43 ± 10.7 | 56.8 ± 11 | NC1CC(N)C(O[C@H]2OC(CNC(=O)CCCc3ccc4ccc5cccc6ccc3c4c56)[C@@H](O)C(O)C2O)[C@H](O)C1OC1O[C@H](CO)C(O)C(N)[C@H]1O (some centres unmarked) [KI09] |  |  | Cx26 Imax (human Cx26 HCs [1]; [11]): 95.3 ± 3.5; IC50 (human Cx26 HCs [1]; [12]): 18.6 ± 2.1 µM; Cx43 inhibition (%) (Cx43 HCs [2]; Table 6, listed as 4e): 52.2 ± 8.8%; Cx43/Cx26 Selectivity (Cx43 HCs [2]; Table 7): 2,16
10 | 22.3 ± 6.9 | 79.6 ± 3.5 | 56.8 ± 8.8 | 83.4 ± 1.1 | 22.3 ± 6.9 | 79.6 ± 3.5 | > 50 | 83.4 ± 1.1 | 8.9 ± 3.7 |  |  | 56.8 ± 8.8 | 83.4 ± 1.1 | NC1CC(N)C(O[C@H]2OC(CNC(=O)c3ccccc3-c3c4ccc(=O)cc-4oc4ccc(O)cc34)[C@@H](O)C(O)C2O)[C@H](O)C1OC1O[C@H](CO)C(O)C(N)[C@H]1O (some centres unmarked) [KI10] |  |  | IC50 (human Cx26 HCs [1]; Table 7): 12.7 ± 2.2 µM; Cx43/Cx26 Selectivity (Cx43 HCs [2]; Table 7): 1.42
11 |  |  |  |  |  |  |  |  |  |  |  |  |  | NC[C@H]1O[C@H](O[C@H]2[C@H](O)[C@@H](O[C@H]3O[C@H](CO)[C@@H](O)[C@H](N)[C@H]3O)[C@H](N)C[C@@H]2N)[C@H](N)[C@@H](O)[C@@H]1O [Kanamycin B] | 3.6 ± 0.9 | 24 ± 2 | Cx43/Cx26 Selectivity (Cx43 HCs [2]; the 16th table): 0.15
12 |  |  |  |  |  |  |  |  |  |  |  |  |  | NC[C@H]1O[C@H](O[C@H]2[C@H](O[C@@H]3O[C@H](CO)[C@@H](O)[C@H]3O)[C@@H](O)[C@H](N)C[C@@H]2N)[C@H](N)[C@@H](O)[C@@H]1O [Ribostamycin] | > 100 | > 200 | 
13 |  |  |  |  |  |  |  |  |  |  |  |  |  | Neomycin | 7.4 ± 1.3 | 45 ± 9 | Cx43/Cx26 Selectivity (Cx43 HCs [2]; the 16th table): 0.16

Reference: US12286452B2, “Amphiphilic aminoglycoside connexin hemichannel inhibitors” (Texas Tech University System, priority 2018, dated 2025)
